Literature values in US7087611B2, “Preparation of an anhydrate form of 5-[2-[4-(1,2-benzisothiazol-3-yl)-1-piperazinyl]ethyl]-6-chloro-1,3-dihydro-2H-indol-2-one hydrochloride (ziprasidone hydrochloride)” (Apotex Pharmachem Inc., priority 2004, dated 2006).
Counter-ions that a name gives are not always drawn.

How the values were obtained:
[1] = crystalline monohydrate form; as stated in U.S. Pat. No. 5,312,925
[2] = crystalline monohydrate form; background statement

hygroscopic stability [1]: substantially hygroscopically stable | aqueous solubility [2]: very low
Compound: O=C1Cc2cc(CCN3CCN(c4nsc5ccccc45)CC3)c(Cl)cc2N1 [ziprasidone hydrochloride monohydrate]
